The text below walks through data of patent publication US20070172423A1, “Composition and method for modulating vasculogenesis for angiogenesis” (priority 1998, published 2007).

For test [1], the system named is protease in AG1523 medium processing full-length PDGF-C. Description: Protease inhibitor analysis of PDGF-C processing by AG1523 medium. The class given is biochemical, human. Particulars: AG1523 serum-free medium, 37° C. overnight, immunoblot. As for the experimental part: To elucidate the mechanism of the proteolysis of PDGF-C a protease inhibitor analysis was conducted. Various protease inhibitors (see Table 1, source: Sigma) were pre-incubated with 0.9 ml of AG1523 serum-free medium at room temperature for 30 minutes, then incubated with 0.2 ml of recombinant full-length PDGF-C (Sf9 serum-free medium) at 37° C. overnight. TCA-precipitated proteins were subjected to SDS-page under reducing conditions and then immunoblotted. Recombinant PDGF-C was detected using an anti-His6 epitope monoclonal antibody (C-terminal) (InVitrogen).
For orientation: A western blot detects proteins with antibodies after separation by electrophoresis.

Test [2] has as its system hSMC. The test can be described thus: Cell migration assay, hSMC. It counts as cell-based, human. The settings on record: wounded monolayer, 20 hours. As for the experimental part:
Cell migration assays were performed on growth arrested confluent HMVEC, BAEC or hSMC cells. Cell monolayers were wounded with a rubber policeman and washed with serum-free medium. Dishes were then incubated for 20 hours in serum-free medium containing VEGF165, PDGF-AA, (R&D Systems, Minneapolis USA) or PDGF-CC. Each assay included two dishes per condition and was repeated three times independently. Cells were photographed at 40× magnification, and migration percentage corresponding to the ratio between area of the cells and the total area of the wound (Biocom visiol@b 2000 version 4.52, San Diego). […] After 7 days, viable cells were counted using the cell Titer-glo luminescent cell viability assay. […] Two days later, cell numbers were counted and proliferation percentage calculated, using cells cultured in medium containing 10% serum as control. […] Aortic rings were analysed at day 9 of culturing. […]
The mitogenic and chemotactic effect of PDGF-CC was then tested on SMCs and perivascular fibroblast cells, and the effect of PDGF-CC was compared to that of VEGF and PDGF-AA in both cultured cells and the aortic ring assay (Blacher et al., Angiogenesis, 2001 4:133-42). […] In the aortic ring assay, we quantified the growth and emigration of perivascular fibroblasts from the intact vessel using computer-assisted image analysis after treatment with VEGF and different PDGFs at different concentrations. […]

Test [3] relates to hSMC. The test can be described thus: hSMC proliferation assay. The class given is cell-based, human. Particulars: two days, different concentrations. As to the method: (§1) Cell migration assays were performed on growth arrested confluent HMVEC, BAEC or hSMC cells. Cell monolayers were wounded with a rubber policeman and washed with serum-free medium. Dishes were then incubated for 20 hours in serum-free medium containing VEGF165, PDGF-AA, (R&D Systems, Minneapolis USA) or PDGF-CC. Each assay included two dishes per condition and was repeated three times independently. Cells were photographed at 40× magnification, and migration percentage corresponding to the ratio between area of the cells and the total area of the wound (Biocom visiol@b 2000 version 4.52, San Diego). For HMVEC proliferation assay, cells were seeded in 96-well plates (5 wells per condition), and incubated with VEGF, PDGF-AA, or PDGF-CC (50 ng/ml) after serum starvation. After 7 days, viable cells were counted using the cell Titer-glo luminescent cell viability assay. For NIH-3T3 and hSMC proliferation assay, cells cultured in 96-well plates were serum-starved overnight, followed by treatment with growth factors at different concentrations. Two days later, cell numbers were counted and proliferation percentage calculated, using cells cultured in medium containing 10% serum as control. Aortic ring assay was performed as described 51. […] Aortic rings were analysed at day 9 of culturing. […]

In test [4] the test system is bovine aorta endothelial cells (BAEC). The test can be described thus: Cell migration assay, BAEC. Particulars: wounded monolayer, 20 hours, serum-free medium. It counts as cell-based. As to the method: as §1
The next test concerns aortic rings. The test can be described thus: Aortic ring assay. The settings on record: for number of sprouting microvessels: day 9 of culturing, versus control. The class given is cell-based. As to the method: Cell migration assays were performed on growth arrested confluent HMVEC, BAEC or hSMC cells. Cell monolayers were wounded with a rubber policeman and washed with serum-free medium. Dishes were then incubated for 20 hours in serum-free medium containing VEGF165, PDGF-AA, (R&D Systems, Minneapolis USA) or PDGF-CC. Each assay included two dishes per condition and was repeated three times independently. Cells were photographed at 40× magnification, and migration percentage corresponding to the ratio between area of the cells and the total area of the wound (Biocom visiol@b 2000 version 4.52, San Diego). For HMVEC proliferation assay, cells were seeded in 96-well plates (5 wells per condition), and incubated with VEGF, PDGF-AA, or PDGF-CC (50 ng/ml) after serum starvation. After 7 days, viable cells were counted using the cell Titer-glo luminescent cell viability assay. For NIH-3T3 and hSMC proliferation assay, cells cultured in 96-well plates were serum-starved overnight, followed by treatment with growth factors at different concentrations. Two days later, cell numbers were counted and proliferation percentage calculated, using cells cultured in medium containing 10% serum as control. Aortic ring assay was performed as described 51. Briefly, one-millimeter long aortic rings were embedded in gels of rat tail interstitial collagen and cultured at 37° C., supplemented with different growth factors (50 ng/ml). Aortic rings were analysed at day 9 of culturing. Experiments included three explants per condition and were repeated at least twice. Aortic rings were photographed at 25× magnification.
Although PDGFR-α is expressed on endothelial cells (Edelberg et al., Journal of Clinical Investigation, 1998 102:837-43; Smits et al., Growth Factors, 1989 2:1-8; Bar et al., Endocrinology, 1989 124:1841-8; Beitz et al., Proc Natl Acad Sci USA, 1991 88:2021-5; Marx et al., J Clin Invest, 1994 93:131-9; Shinbrot et al., Dev. Dyn., 1994 199:169-175), little is known about the functional consequence of PDGFR-α signaling in these cells. […] We also tested the effect of PDGF-CC on cultured aortic rings, as this assay allows assessment of the outgrowth of microvessels from an intact vessel in vitro (Blacher et al., Angiogenesis, 2001 4:133-42). Results are graphically represented as the number of microvessels and the distance over which they grew out from the aortic ring. Each experiment included three explants per condition and was repeated at least twice. At day 9 after culturing, microvessels and the distance of their outgrowth were quantified and evaluated using Student's t test. In baseline conditions, only a small number of microvessels sprouted from the aortic rings—most of them over very short distances (0.25 mm from the aortic ring)—and only a small fraction (<5%) growing out over longer distances (>0.5 mm from the aortic ring, FIG. 41a). VEGF increased not only the number of sprouting microvessels (P<0.001 at all concentrations versus control), but also the distance over which they grew out (P<0.05 at all concentrations versus control; FIG. 41b,f). At 30 ng/ml, PDGF-CC increased the number of microvessels (P<0.001 versus control, FIG. 41e,g) and increased the distance of vessel outgrowth at 5 ng/ml (P<0.01 versus control, FIG. 41g). […] A similar bell-shaped dose-response relationship has been documented for other members of the VEGF/PDGF-superfamily (Jin et al., J Mol Neurosci, 2000 14:197-203). PDGF-AA, however, had no effect on the number of microvessels, although it increased the distance of vessel outgrowth at 5 ng/ml (P<0.01 versus control, FIG. 41h). Thus, PDGF-CC mobilized EC migration in cultured cells and promoted microvessel sprouting in the aortic ring assay.
The mitogenic and chemotactic effect of PDGF-CC was then tested on SMCs and perivascular fibroblast cells, and the effect of PDGF-CC was compared to that of VEGF and PDGF-AA in both cultured cells and the aortic ring assay (Blacher et al., Angiogenesis, 2001 4:133-42). […]

In another test the test system is HMVEC. Description: HMVEC proliferation assay. It counts as cell-based, human. The settings on record: 50 ng/ml, 7 days. As for the experimental part: as §1
The next test relates to NIH-3T3 fibroblast cells. The test can be described thus: NIH-3T3 proliferation assay. The class given is cell-based. The settings on record: two days, different concentrations. As for the experimental part: as §1
Test [5] addresses T1, human PDGF receptor alpha (Homo sapiens, UniProt P16234).
T1 construct: expressed in transfected cells
The test can be described thus: Competition with 125I-PDGF-BB for binding to PAE-1 cells expressing PDGF alpha-receptor. The settings on record: 5 ng/ml 125I-PDGF-BB tracer, on ice 90 minutes. As to the method:
Next, full length and truncated PDGF-C were tested for their capacity to bind to human PDGF receptors alpha and beta by analyzing their abilities to compete with PDGF-BB for binding to PDGF receptors. The binding experiments were performed on porcine aortic endothelial-1 (PAE-1) cells stably expressing the human PDGF receptors alpha and beta (Eriksson et al., EMBO J, 1992, 11, 543-550). Binding experiments were performed essentially as in Heldin et al. (EMBO J, 1988, 7:1387-1393). Different concentrations of human full-length and truncated PDGF-C, or human PDGF-BB were mixed with 5 ng/ml of ^125I-PDGF-BB in binding buffer (PBS containing 1 mg/ml of bovine serum albumin). Aliquots were incubated with the receptor expressing PAE-1 cells plated in 24-well culture dishes on ice for 90 minutes. After three washes with binding buffer, cell-bound 125]-PDGF-BB was extracted by lysis of cells in 20 mM Tris-HCl, pH 7.5, 10% glycerol, 1% Triton X-100. The amount of cell bound radioactivity was determined in a gamma-counter. A standard curve for the binding of ^125I-labeled PDGF BB homodimers to PAE-1 cells expressing PDGF alpha-receptor is shown in FIG. 18.

The subject of test [6] is human bone marrow-derived AC133+CD34+ cells. The test can be described thus: Human bone marrow cell adherence and differentiation assay. It counts as cell-based. Particulars: 50 ng/ml. As for the experimental part:
Enriched human BM derived AC133+CD34+ cells (Clonetics) at 10^5/ml were cultured for 3 days in HPGM (Clonetics) in a 6-well plate (Becton Dickinson). Cells were then seeded in collagen coated 12-well plates in EBM (Clonetics) medium containing 4% FCS and VEGF165 (R&D Systems) or PDGF-CC (50 ng/ml each). Growth factors were added every two days and media were refreshed at 75% every four days. For adherence assay, 2.5×10^4 of non-adherent cells/ml were cultured in the same condition on chamber slides coated with collagen, or in 96-well plate coated with 0.3% gelatin in PBS. Cells were then washed three times with PBS, fixed and stained with May-Grünwald Giemsa (Sigma) after two weeks of culture on chamber slides (Becton Dickinson). The number of viable cells was estimated by ATP quantification using cellTiter-glo luminescent cell viability assay (Promega) according to the manufacturer's instructions. For cell surface marker staining, cells (2×10^4/well) cultured on collagen-coated culture slides for two or four weeks were fixed (45 min, 25° C.) and permeabilized (45 min, 25° C.) using a Intrastain Kit (DAKO), and then labeled with CD31-FITC (Becton Dickinson), CD144-FITC (Pharmingen), CD34-FITC (Becton Dickinson) or SMC-Actin CY3 (Sigma). Single or double-labeled cells were analyzed using laser confocal immunofluorescence microscopy.
Upon stimulation by growth factors or cytokines, bone marrow stem/progenitor cells can differentiate into ECs and SMCs and thereby contribute to angio/arteriogenesis (Orlic et al., Nature, 2001 410:701-5; Kawamoto et al., Circulation, 2001 103:634-7; Asahara et al., Circ Res, 1999 85:221-8). The potential role of PDGF-CC in the differentiation of bone marrow progenitors into vascular cells has, however, not been investigated thus far. We therefore cultured human bone marrow-derived AC133^+CD34^+ cells—a population enriched for stem/progenitor cells (Miraglia et al., Blood, 1997 90:5013-21; Yu et al., J Biol Chem, 2002 277:20711-6; Donnelly et al., Leuk Lymphoma, 2001 40:221-34)—and stimulated them with PDGF-CC, using VEGF as a control (50 ng/ml each).

Test [7] relates to human microvascular endothelial cells (HMVEC). Description: Cell migration assay, HMVEC. The class given is cell-based. Particulars: wounded monolayer, 20 hours, serum-free medium. As to the method: as §1

T1 sequence (P16234 24-1089): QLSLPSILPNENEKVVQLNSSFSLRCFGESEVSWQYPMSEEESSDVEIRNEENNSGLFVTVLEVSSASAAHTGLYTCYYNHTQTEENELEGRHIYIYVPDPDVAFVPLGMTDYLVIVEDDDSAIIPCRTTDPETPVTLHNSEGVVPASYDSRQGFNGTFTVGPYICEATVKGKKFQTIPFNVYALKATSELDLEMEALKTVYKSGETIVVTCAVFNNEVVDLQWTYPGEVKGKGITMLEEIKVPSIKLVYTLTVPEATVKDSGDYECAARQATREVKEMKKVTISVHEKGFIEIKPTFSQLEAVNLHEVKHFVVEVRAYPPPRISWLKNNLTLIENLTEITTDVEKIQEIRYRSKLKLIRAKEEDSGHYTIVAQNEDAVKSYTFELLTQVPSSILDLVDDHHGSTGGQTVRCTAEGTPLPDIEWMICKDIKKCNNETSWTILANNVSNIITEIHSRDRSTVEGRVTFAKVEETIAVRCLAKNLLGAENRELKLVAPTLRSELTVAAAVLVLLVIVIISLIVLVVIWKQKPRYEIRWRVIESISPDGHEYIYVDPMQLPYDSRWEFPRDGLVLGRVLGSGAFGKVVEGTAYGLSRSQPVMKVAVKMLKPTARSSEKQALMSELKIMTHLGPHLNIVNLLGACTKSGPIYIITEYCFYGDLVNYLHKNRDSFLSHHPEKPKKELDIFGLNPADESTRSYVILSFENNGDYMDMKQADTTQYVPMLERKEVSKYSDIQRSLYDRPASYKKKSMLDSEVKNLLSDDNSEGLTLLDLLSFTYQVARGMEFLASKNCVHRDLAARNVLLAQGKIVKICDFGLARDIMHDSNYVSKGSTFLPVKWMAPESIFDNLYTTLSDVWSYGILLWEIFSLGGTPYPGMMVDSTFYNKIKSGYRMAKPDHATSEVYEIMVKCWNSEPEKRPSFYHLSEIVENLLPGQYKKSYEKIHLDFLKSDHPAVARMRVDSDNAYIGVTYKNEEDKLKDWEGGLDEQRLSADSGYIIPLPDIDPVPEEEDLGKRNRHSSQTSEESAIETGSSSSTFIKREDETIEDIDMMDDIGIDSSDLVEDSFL

Aprotinin: the “inhibition of proteolytic processing of full-length PDGF-C” value in [1] is “capacity to inhibit”.
Turning to “PDGF-AA: PDGF A-chain homodimer (R&D Systems), PDGFR-α ligand used as control”, the hSMC migration entry with hSMC [2] was “stimulated”. Moreover, in the test on hSMC [3], the “proliferation of cultured hSMC cells” value is “stimulated”. Moreover, the “migration of BAEC” value in [4] was “no effect”. The “distance of vessel outgrowth” value with aortic rings (5 ng/ml, day 9, versus control) was “increased”. Besides, in the test with aortic rings (day 9, versus control), the “number and emigration of perivascular fibroblast-like cells” value is “intermediate effect”. In the test on aortic rings, the “number of sprouting microvessels” value is “no effect”. Besides, the EC proliferation entry in the test on HMVEC was “no effect”. Besides, the “proliferation of cultured NIH-3T3 fibroblast cells” value in the test with NIH-3T3 fibroblast cells is on record as “stimulated”.
For “PDGF-BB: human PDGF B-chain homodimer, unlabeled competitor and 125I tracer [reference compound]”, the “competition for binding to the PDGF alpha-receptor” value in [5] was “competed efficiently”.
VEGF: the hSMC migration entry in the test on hSMC [2] is reported as “no effect”. For the same substance, in test [6] (four weeks), the SMA expression entry is listed as “remained SMA negative”; the “expression of CD144 and CD31” value was “still CD144 and CD31 positive”. Also, in test [6] (two weeks of stimulation), the “adherence of AC133+CD34+ cells” value was “enhanced”; the “expression of EC surface markers CD144 (VE-cadherin) and CD31 (PECAM)” value is reported as “induced”; the “expression of smooth muscle cell marker SMA” value is reported as “did not become SMA positive”. For the same substance, the “distance over which microvessels grew out” value with aortic rings (all concentrations, day 9, versus control) was “increased”. Further, the “number and emigration of perivascular fibroblast-like cells” value in the test on aortic rings (day 9, versus control) was “in effective”. Further, the “number of sprouting microvessels” value with aortic rings is “increased”. Further, the “migration of HMVECs” value in [7] is “stimulated”. Further, the EC proliferation result with HMVEC was “highly stimulated”.
